Source: patent publication US7300946B2, “N-(substituted arylmethyl)-4-(disubstituted methyl) piperidines and pyridines” (Bayer CropScience AG, priority 2002, dated 2007)

Each molecule was assayed on tobacco budworm (Heliothis virescens [Fabricius]) (assay: surface-treated diet test against the tobacco budworm). Settings: tobacco budworm second instar larvae; 0.25 millimoles of candidate insecticide on the surface of the diet; five-day exposure; compared to total number of insects infested.
Assay type: in vivo
Procedure, shortened: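 Wheat germ artificial diet surface-treated with 40 µL of 50 mM DMSO stock diluted 1:7 in 1:1 water/acetone (0.25 millimolar on diet), or sub-multiples for rate tests. One second-instar larva per well, 25° C, 60% RH, 5 days; percent weight inhibition vs DMSO controls and percent mortality.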

| SMILES | Percent Mortality |
| --- | --- |
| O=C(Nc1ccc(Cl)cc1)OC(c1ccc(Cl)c(Cl)c1)C1CCN(Cc2ccc(Oc3ncccn3)cc2)CC1 (stereo not shown) [Compound 721] | 100% |
| CC(C)OC(=O)Nc1ccc(C[N+]2([O-])CCC(=C(c3ccc(F)cc3)c3ccc(F)cc3)CC2)cc1 (stereo not shown) [Compound 832] | 83% |
| c1ccc(C(=C2CCN(Cc3ccc(Oc4ccccn4)cc3)CC2)c2ccccc2)cc1 [Compound 808] | 0% |
| CC(=O)c1ccc(NC(=O)OC(c2ccc(C(F)(F)F)cc2)C2CCN(Cc3ccc(Oc4ccccn4)cc3)CC2)cc1 (stereo not shown) [Compound 705] | 17% |
| CC(C)OC(=O)Nc1ccc(CN2CCC(=C(c3ccc(F)cc3)c3ccc(F)cc3)CC2)cc1 [Compound 794] | 83% |
| CCOC(=O)CNC(=O)OC(c1ccc(C(F)(F)F)cc1)C1CCN(Cc2ccc(Oc3ccccn3)cc2)CC1 (stereo not shown) [Compound 783] | 0% |

Same assay, conditions: tobacco budworm second instar larvae; 0.25 millimoles of candidate insecticide on the surface of the diet; five-day exposure; inhibition of insect weight relative to untreated controls

| SMILES | Percent Growth Inhibition |
| --- | --- |
| O=C(Nc1ccc(Cl)cc1)OC(c1ccc(Cl)c(Cl)c1)C1CCN(Cc2ccc(Oc3ncccn3)cc2)CC1 (stereo not shown) [Compound 721] | 100% |
| CC(C)OC(=O)Nc1ccc(C[N+]2([O-])CCC(=C(c3ccc(F)cc3)c3ccc(F)cc3)CC2)cc1 (stereo not shown) [Compound 832] | 100% |
| c1ccc(C(=C2CCN(Cc3ccc(Oc4ccccn4)cc3)CC2)c2ccccc2)cc1 [Compound 808] | 64% |
| CC(=O)c1ccc(NC(=O)OC(c2ccc(C(F)(F)F)cc2)C2CCN(Cc3ccc(Oc4ccccn4)cc3)CC2)cc1 (stereo not shown) [Compound 705] | 100% |
| CC(C)OC(=O)Nc1ccc(CN2CCC(=C(c3ccc(F)cc3)c3ccc(F)cc3)CC2)cc1 [Compound 794] | 100% |
| CCOC(=O)CNC(=O)OC(c1ccc(C(F)(F)F)cc1)C1CCN(Cc2ccc(Oc3ccccn3)cc2)CC1 (stereo not shown) [Compound 783] | 70% |

Same assay, conditions: tobacco budworm second instar larvae; surface-treated diet; 0.25 millimoles of candidate insecticide on the surface of the diet; five-day exposure; compared to total number of insects infested

| SMILES | Percent Mortality |
| --- | --- |
| CCn1nnc(-c2ccc(CN3CCC(C(OC(=O)Nc4cc(F)cc(F)c4)c4ccc(Cl)c(Cl)c4)CC3)cc2)n1 (stereo not shown) [Compound 575] | 100% |
| O=C(Nc1ccc(C(F)(F)F)cc1)OC(c1ccc(F)cc1)C1CCN(Cc2ccc(Oc3ccccn3)cc2)CC1 (stereo not shown) [Compound 643] | 100% |
| N#Cc1ccc(Oc2ccc(C[N+]3([O-])CCC(=C(c4ccc(C(F)(F)F)cc4)c4ccc(C(F)(F)F)cc4)CC3)cc2)nc1 (stereo not shown) [Compound 111] | 100% |
| CCn1nnc(-c2ccc(CN3CCC(C(OC(=O)Nc4ccc(Cl)cc4)c4ccc(C)cc4)CC3)cc2)n1 (stereo not shown) [Compound 595] | 100% |
| CCCOc1ccc(CN2CCC(C(OC(=O)Nc3cccc(C(F)(F)F)c3)c3ccc(Cl)c(Cl)c3)CC2)cc1 (stereo not shown) [Compound 483] | 100% |
| O=C(Nc1cc(F)cc(F)c1)OC(c1ccc(C(F)(F)F)cc1)C1CCN(Cc2ccc(NC(=O)c3ccccc3Cl)cc2)CC1 (stereo not shown) [Compound 550] | 100% |
| CCn1nnc(-c2ccc(CN3CCC(C(OC(=O)Nc4ccc(Cl)cc4)c4ccc(Oc5ccccc5)cc4)CC3)cc2)n1 (stereo not shown) [Compound 616] | 100% |
| O=C(Nc1ccc(OC(F)(F)F)cc1)OC(c1ccc(C(F)(F)F)cc1)C1CCN(Cc2ccc(Oc3ccccn3)cc2)CC1 (stereo not shown) [Compound 249] | 100% |
| O=C(Nc1ccc(C(F)(F)F)cc1)OC(c1ccc(OC(F)(F)F)cc1)C1CCN(Cc2ccc(Oc3ccccn3)cc2)CC1 (stereo not shown) [Compound 246] | 100% |
| Cn1nnc(-c2ccc(C[N+]3([O-])CCC(C(OC(=O)Nc4ccc(OC(F)(F)F)cc4)c4ccc(OC(F)(F)F)cc4)CC3)cc2)n1 (stereo not shown) [Compound 404] | 100% |
| CCn1nnc(-c2ccc(CN3CCC(C(OC(=O)Nc4cccc(C(F)(F)F)c4)c4ccc(C)cc4)CC3)cc2)n1 (stereo not shown) [Compound 599] | 100% |
| O=C(Nc1ccc(F)cc1)OC(c1ccc(F)cc1)C1CCN(Cc2ccc(Oc3ccccn3)cc2)CC1 (stereo not shown) [Compound 640] | 100% |
| Cn1nnc(-c2ccc(CN3CCC(C(NC(=O)Oc4ccccc4F)c4ccc(OC(F)(F)F)cc4)CC3)cc2)n1 (stereo not shown) [Compound 351] | 50% |
| COc1cc(NC(=O)OC(c2ccc(Cl)cc2)C2CCN(Cc3ccc(Oc4ccccn4)cc3)CC2)cc(OC)c1 (stereo not shown) [Compound 633] | 50% |

Same assay, conditions: tobacco budworm second instar larvae; surface-treated diet; 0.25 millimoles of candidate insecticide on the surface of the diet; five-day exposure; inhibition of insect weight relative to untreated controls

| SMILES | Percent Growth Inhibition |
| --- | --- |
| CCn1nnc(-c2ccc(CN3CCC(C(OC(=O)Nc4cc(F)cc(F)c4)c4ccc(Cl)c(Cl)c4)CC3)cc2)n1 (stereo not shown) [Compound 575] | 100% |
| O=C(Nc1ccc(C(F)(F)F)cc1)OC(c1ccc(F)cc1)C1CCN(Cc2ccc(Oc3ccccn3)cc2)CC1 (stereo not shown) [Compound 643] | 100% |
| N#Cc1ccc(Oc2ccc(C[N+]3([O-])CCC(=C(c4ccc(C(F)(F)F)cc4)c4ccc(C(F)(F)F)cc4)CC3)cc2)nc1 (stereo not shown) [Compound 111] | 100% |
| CCn1nnc(-c2ccc(CN3CCC(C(OC(=O)Nc4ccc(Cl)cc4)c4ccc(C)cc4)CC3)cc2)n1 (stereo not shown) [Compound 595] | 100% |
| CCCOc1ccc(CN2CCC(C(OC(=O)Nc3cccc(C(F)(F)F)c3)c3ccc(Cl)c(Cl)c3)CC2)cc1 (stereo not shown) [Compound 483] | 100% |
| O=C(Nc1cc(F)cc(F)c1)OC(c1ccc(C(F)(F)F)cc1)C1CCN(Cc2ccc(NC(=O)c3ccccc3Cl)cc2)CC1 (stereo not shown) [Compound 550] | 100% |
| CCn1nnc(-c2ccc(CN3CCC(C(OC(=O)Nc4ccc(Cl)cc4)c4ccc(Oc5ccccc5)cc4)CC3)cc2)n1 (stereo not shown) [Compound 616] | 100% |
| O=C(Nc1ccc(OC(F)(F)F)cc1)OC(c1ccc(C(F)(F)F)cc1)C1CCN(Cc2ccc(Oc3ccccn3)cc2)CC1 (stereo not shown) [Compound 249] | 100% |
| O=C(Nc1ccc(C(F)(F)F)cc1)OC(c1ccc(OC(F)(F)F)cc1)C1CCN(Cc2ccc(Oc3ccccn3)cc2)CC1 (stereo not shown) [Compound 246] | 100% |
| Cn1nnc(-c2ccc(C[N+]3([O-])CCC(C(OC(=O)Nc4ccc(OC(F)(F)F)cc4)c4ccc(OC(F)(F)F)cc4)CC3)cc2)n1 (stereo not shown) [Compound 404] | 100% |
| CCn1nnc(-c2ccc(CN3CCC(C(OC(=O)Nc4cccc(C(F)(F)F)c4)c4ccc(C)cc4)CC3)cc2)n1 (stereo not shown) [Compound 599] | 100% |
| O=C(Nc1ccc(F)cc1)OC(c1ccc(F)cc1)C1CCN(Cc2ccc(Oc3ccccn3)cc2)CC1 (stereo not shown) [Compound 640] | 100% |
| Cn1nnc(-c2ccc(CN3CCC(C(NC(=O)Oc4ccccc4F)c4ccc(OC(F)(F)F)cc4)CC3)cc2)n1 (stereo not shown) [Compound 351] | 100% |
| COc1cc(NC(=O)OC(c2ccc(Cl)cc2)C2CCN(Cc3ccc(Oc4ccccn4)cc3)CC2)cc(OC)c1 (stereo not shown) [Compound 633] | 100% |
